Measurements from PMC8578705 (Cell Reports, 2021).

What was measured:
SERCAs = assay: Ca2+ uptake by the intracellular stores of permeabilized HEK-IP3R1 cells; type: cell-based, Homo sapiens; conditions: heparin 10 mg/mL
Protocol: Figure S6. Effects of heparin, 2-APB and dequalinium on IP3Rs and Ca2+ uptake by intracellular […]
Related to Figures 5 and 6.
(A) Structures of the antagonists used.
CLM at 20 °C. Mean ± SEM, n = 3.
(C-F) Permeabilized HEK-IP3R1 cells were loaded with Ca2+, and SERCA was then inhibited with CPA (10 μM) before addition of DMSO (1% v/v; C) or dequalinium (10-100 μM, D-F), and then the indicated […]
Mean of 2 replicates, typical of 5 experiments.
(G) Summary results (mean ± SEM, n = 5, each with duplicate determinations) show Ca2+ released by […]
ER Ca2+ content was measured 20
(H-J) Similar analyses of the effects of heparin (10 mg/mL, I) or 2-APB (125 μM, J). Means of 2 replicates, typical of 3-5 experiments.
(K) Effects of dequalinium (50 μM), heparin (10 mg/mL) or 2-APB (125 μM) on Ca2+ uptake by the intracellular stores of permeabilized HEK-IP3R1 cells. Mean ± SD of 4-6 replicates, typical of 4 […]
(L) and the rate of Ca2+ uptake (M). ER Ca2+ content was measured 180 s after addition of ATP (L).
Mean ± SEM, n = 4, each with 4-6 determinations. ****P < 0.0001, ***P < 0.001, *P < 0.05 one-way ANOVA with Bonferroni's test relative to control.

IP3R1 (HEK-IP3R1 cells) = target: T1, IP3R1 (HEK-IP3R1 cells) (Rattus norvegicus, UniProt P29994); assay: Ca2+ release from permeabilized HEK-IP3R1 cells; type: cell-based; conditions: at the concentrations used (heparin 10 mg/mL, dequalinium 50 μM, 2-APB 125 μM), permeabilized HEK-IP3R1 cells
T1 construct: expressed in transfected cells
T1 sequence (P29994 1-2735 isoform P29994-2): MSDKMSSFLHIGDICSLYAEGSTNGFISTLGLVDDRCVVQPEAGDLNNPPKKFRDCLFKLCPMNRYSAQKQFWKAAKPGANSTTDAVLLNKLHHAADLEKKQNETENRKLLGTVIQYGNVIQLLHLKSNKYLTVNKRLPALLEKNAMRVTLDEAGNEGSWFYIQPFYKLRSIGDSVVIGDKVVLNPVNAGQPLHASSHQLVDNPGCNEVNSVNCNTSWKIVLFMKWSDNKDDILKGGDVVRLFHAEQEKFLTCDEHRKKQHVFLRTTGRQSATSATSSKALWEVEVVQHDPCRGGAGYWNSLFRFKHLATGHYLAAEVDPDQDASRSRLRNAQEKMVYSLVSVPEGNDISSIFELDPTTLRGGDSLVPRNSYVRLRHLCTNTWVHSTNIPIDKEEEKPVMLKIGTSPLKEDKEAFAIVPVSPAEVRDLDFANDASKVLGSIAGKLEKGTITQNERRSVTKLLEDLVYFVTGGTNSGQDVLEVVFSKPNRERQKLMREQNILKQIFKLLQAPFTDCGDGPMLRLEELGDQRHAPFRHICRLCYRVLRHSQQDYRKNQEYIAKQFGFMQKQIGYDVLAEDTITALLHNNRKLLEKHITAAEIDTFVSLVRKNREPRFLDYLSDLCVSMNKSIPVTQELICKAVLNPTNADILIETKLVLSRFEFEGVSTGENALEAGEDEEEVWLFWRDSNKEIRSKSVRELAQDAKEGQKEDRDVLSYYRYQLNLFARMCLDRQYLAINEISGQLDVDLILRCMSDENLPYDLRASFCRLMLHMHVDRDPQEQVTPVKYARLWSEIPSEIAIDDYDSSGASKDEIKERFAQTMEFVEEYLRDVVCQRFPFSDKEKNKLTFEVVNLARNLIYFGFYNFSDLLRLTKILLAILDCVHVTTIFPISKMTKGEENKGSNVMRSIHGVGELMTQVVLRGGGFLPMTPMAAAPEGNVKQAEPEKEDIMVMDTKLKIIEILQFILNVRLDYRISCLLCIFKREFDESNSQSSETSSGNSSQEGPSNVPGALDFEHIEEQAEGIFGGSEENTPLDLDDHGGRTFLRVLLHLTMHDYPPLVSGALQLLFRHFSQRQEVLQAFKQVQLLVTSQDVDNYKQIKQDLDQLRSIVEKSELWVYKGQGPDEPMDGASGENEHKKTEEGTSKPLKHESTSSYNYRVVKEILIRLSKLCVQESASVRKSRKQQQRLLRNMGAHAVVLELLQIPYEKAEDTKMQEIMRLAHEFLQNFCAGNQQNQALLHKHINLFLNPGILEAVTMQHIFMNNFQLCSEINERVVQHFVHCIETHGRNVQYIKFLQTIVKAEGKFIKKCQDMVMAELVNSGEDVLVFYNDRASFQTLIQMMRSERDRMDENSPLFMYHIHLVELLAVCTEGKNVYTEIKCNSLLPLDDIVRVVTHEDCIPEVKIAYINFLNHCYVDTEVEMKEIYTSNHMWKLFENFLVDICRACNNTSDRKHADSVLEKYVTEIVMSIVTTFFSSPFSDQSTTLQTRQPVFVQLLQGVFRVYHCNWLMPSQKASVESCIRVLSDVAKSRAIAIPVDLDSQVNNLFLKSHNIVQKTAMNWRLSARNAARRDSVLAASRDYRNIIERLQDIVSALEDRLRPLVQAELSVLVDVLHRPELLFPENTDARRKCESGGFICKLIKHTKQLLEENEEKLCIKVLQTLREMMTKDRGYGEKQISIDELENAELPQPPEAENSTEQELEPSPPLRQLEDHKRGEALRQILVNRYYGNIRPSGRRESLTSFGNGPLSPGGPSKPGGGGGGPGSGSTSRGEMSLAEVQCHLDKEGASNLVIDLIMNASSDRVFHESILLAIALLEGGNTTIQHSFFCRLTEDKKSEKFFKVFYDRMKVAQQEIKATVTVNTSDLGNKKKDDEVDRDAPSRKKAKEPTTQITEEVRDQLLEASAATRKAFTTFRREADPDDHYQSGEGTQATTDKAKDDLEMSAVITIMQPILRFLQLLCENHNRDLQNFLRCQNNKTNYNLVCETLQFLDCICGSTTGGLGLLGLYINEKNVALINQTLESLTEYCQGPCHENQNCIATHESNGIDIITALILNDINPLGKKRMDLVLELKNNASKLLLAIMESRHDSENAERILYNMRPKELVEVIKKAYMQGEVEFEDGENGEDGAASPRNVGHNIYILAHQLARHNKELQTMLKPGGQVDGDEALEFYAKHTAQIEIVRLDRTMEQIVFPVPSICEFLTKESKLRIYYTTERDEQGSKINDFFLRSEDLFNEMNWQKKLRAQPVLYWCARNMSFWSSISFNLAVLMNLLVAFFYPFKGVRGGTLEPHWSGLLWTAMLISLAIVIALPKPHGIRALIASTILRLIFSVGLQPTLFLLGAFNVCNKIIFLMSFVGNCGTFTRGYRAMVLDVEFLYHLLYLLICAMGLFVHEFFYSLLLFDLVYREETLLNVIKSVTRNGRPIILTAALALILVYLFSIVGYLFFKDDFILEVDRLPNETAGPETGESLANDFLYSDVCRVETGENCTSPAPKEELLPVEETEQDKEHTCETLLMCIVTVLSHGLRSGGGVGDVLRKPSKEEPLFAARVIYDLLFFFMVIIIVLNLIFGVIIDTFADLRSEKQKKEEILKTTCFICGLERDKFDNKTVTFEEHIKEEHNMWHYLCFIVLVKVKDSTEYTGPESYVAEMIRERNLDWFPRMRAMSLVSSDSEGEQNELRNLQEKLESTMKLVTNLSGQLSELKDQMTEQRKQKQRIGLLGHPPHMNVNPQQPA
Protocol: Fluorescence, which is approximately linearly related to ER free [Ca^2+] […] Ca^2+-free CLM comprised: 20 mM NaCl, 140 mM KCl, 1 mM EGTA, 20 mM PIPES, 2 mM MgCl2, pH 7.0. […] MgATP (1.5 mM) was added to initiate Ca^2+ uptake, and when the ER had loaded to steady state with Ca^2+ (∼150 s), ligands were added. Responses to the ligands show ER Ca^2+ contents as either time courses or, in summary results, as the Ca^2+ content recorded 20 s after addition of the stimulus. The distribution of samples across 96-well plates was varied between experiments to avoid any systematic ‘position-related’ artifacts. HEK-G-CEPIA1er cells were permeabilized and assayed as described for Mag-fluo 4-loaded cells.
For equilibrium binding and concentration-effect relationships, results from each experiment were fitted to Hill equations (PRISM) from which pIC50 (-log of half-maximal inhibitory concentration) or pEC50 (-log of half-maximally effective concentration) values were determined.

[1] = test system: mock-transfected HEK cells; assay: ER Ca2+ release from permeabilized mock-transfected HEK cells; type: cell-based, Homo sapiens; conditions: ML-SA1 0-100 μM
Protocol: Figure S5. Evidence that over-expressed TRPML1 releases Ca2+ from ER, and that erlin 2 does not mediate quantal Ca2+ release
Ca2+ uptake into the ER of permeabilized HEK cells was initiated by addition of ATP (1.5 mM), before adding CPA (10 μM) and then the indicated […]
concentration of ML-SA1 (0-100 μM).
(B) Summary results from experiments similar to those shown in Figure 4A show half-times (t1/2) for loss of ER Ca2+ evoked by the indicated concentrations of ML-SA1 (mean ± SEM, n = 4, each with 2 […]
(C) Addition of ATP (1.5 mM) to permeabilized HEK cells stimulates Ca2+ uptake into the ER, reported by the increase in Mag-fluo 4 fluorescence. The response is abolished by CPA (10 µM) added 60 s before ATP. Mean ± SEM, n = 4, each with 2 replicates. RFU, relative fluorescence units.
(D) Permeabilized HEK cells expressing CFP-TRPML1 were treated (60 min) with vehicle (DMSO), bafilomycin A1 (1 µM to inhibit the lysosomal H+ pump) or FCCP (10 µM to dissipate H+ gradients) before addition of ATP (1.5 mM) to initiate Ca2+ uptake. After addition of CPA (10 μM), ML-SA1 (30 µM) was added where indicated. Mean ± SD of 3 replicates. […]
(F) TIRFM images show expression of CFP-TRPML1 and EGFP-IP3R1 in HEK cells expressing both proteins, typical of 3 independent experiments (~10 cells in each). […] It was impracticable, when most CFP-TRPML1 is lysosomal, to quantify any colocalization with IP3Rs. […]

CFP-TRPML1 = target: T2, CFP-TRPML1 (Homo sapiens, UniProt Q9GZU1); assay: ER Ca2+ release from permeabilized HEK cells expressing CFP-TRPML1; type: cell-based
T2 construct: host or cells: HEK cells, transient transfection
T2 sequence (Q9GZU1 whole entry): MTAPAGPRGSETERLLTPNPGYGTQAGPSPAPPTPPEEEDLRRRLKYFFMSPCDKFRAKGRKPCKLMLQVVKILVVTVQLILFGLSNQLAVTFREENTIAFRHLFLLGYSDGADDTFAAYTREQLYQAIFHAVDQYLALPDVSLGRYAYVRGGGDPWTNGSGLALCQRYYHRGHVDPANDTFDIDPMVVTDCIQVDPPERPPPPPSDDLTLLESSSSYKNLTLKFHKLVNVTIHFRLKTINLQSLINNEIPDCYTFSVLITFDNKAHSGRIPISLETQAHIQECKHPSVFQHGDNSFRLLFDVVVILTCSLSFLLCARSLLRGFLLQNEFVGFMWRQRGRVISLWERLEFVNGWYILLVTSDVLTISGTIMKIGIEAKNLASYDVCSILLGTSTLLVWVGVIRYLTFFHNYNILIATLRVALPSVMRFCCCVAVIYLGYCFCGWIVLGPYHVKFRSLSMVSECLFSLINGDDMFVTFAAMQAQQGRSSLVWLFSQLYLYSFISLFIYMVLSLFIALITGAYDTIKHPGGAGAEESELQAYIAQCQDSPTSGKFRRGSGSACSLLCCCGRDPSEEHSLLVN
Source text: Figure 4 Neither ER reorganization nor luminal Ca^2+ mediates quantal Ca^2+ release (A) Effects of the indicated concentrations of ML-SA1 on the ER Ca^2+ content of permeabilized HEK cells expressing CFP-TRPML1. (B) Semi-logarithmic plots show mono-exponential loss of ER Ca^2+ after treatment with ML-SA1. Results (A and B) are typical of four experiments, each with duplicate determinations. Summary results are in Figure S5B. (C and D) Permeabilized DT40-IP3R1 cells were loaded to steady state with Ca^2+ before addition of thapsigargin (TG, 1 μM) to inhibit SERCAs. […] Results are typical of 29–36 experiments. […] See also Figure S5.
Incubation of cells with the acetoxymethylester (AM) of Mag-fluo 4 traps low-affinity forms of the indicator ( KdCa = 1.15 mM measured in situ) within the ER. Fluorescence, which is approximately linearly related to ER free [Ca^2+] (since [Ca^2+]ER < KdCa ), can then be used, without further calibration, to reliably report free [Ca^2+] within the ER lumen ([Rossi and Taylor, 2020]). The ER of DT40 or HEK293 cells was loaded with indicator by incubating cells with Mag-fluo 4 AM (20 μM, 60 min, 22°C) in HEPES-buffered saline (HBS: 135 mM NaCl, 5.9 mM KCl, 11.6 mM HEPES, 1.5 mM CaCl2, 11.5 mM glucose, 1.2 mM MgCl2, pH 7.3) as described ([Rossi et al., 2009]). […]

Substance	effect on SERCAs (Ca2+ uptake) (SERCAs)	block of IP3-evoked Ca2+ release (IP3R1 (HEK-IP3R1 cells))	response to ML-SA1 [1]	Ca2+ release from the ER (CFP-TRPML1)
Heparin, sodium salt	partial inhibition	completely		
ML-SA1			do not respond	concentration-dependent Ca^2+ release
